The record followed here is patent US20170334899A1, “AMINO-SUBSTITUTED ISOTHIAZOLES” (Bayer Pharma Aktiengesellschaft, priority 2014, published 2017).

The target in the assay is T1, human kinase Mps-1 (Homo sapiens, UniProt P33981).
T1 construct: N-terminally GST-tagged human full length recombinant Mps-1 kinase; GST (N); purchased Invitrogen, Karslruhe, Germany PV4071
T1 sequence (P33981 1-857): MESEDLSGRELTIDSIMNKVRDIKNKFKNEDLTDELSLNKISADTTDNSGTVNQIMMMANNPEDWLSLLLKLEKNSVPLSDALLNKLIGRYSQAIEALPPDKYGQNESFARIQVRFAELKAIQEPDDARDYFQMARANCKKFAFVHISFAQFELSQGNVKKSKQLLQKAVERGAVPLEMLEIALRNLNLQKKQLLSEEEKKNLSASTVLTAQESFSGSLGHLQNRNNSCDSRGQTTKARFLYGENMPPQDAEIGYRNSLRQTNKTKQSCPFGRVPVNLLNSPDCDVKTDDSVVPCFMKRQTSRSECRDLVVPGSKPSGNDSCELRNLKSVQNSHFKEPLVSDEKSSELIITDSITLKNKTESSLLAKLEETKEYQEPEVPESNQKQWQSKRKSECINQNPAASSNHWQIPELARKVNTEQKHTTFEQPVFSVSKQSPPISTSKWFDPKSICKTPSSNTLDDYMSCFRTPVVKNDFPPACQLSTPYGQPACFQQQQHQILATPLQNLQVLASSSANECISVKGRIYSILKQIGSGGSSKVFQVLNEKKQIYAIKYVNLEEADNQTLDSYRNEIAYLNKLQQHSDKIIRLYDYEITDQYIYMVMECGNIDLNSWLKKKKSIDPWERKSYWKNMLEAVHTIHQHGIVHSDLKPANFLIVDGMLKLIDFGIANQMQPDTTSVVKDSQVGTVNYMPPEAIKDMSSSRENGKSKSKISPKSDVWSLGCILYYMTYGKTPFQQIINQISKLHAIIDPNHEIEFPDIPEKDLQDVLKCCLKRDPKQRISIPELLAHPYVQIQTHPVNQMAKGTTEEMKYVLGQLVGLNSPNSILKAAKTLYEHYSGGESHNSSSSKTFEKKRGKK
Put plainly: Mps-1 kinase assay (TR-FRET). The assay is classed as biochemical. The conditions noted are these: Mps-1 TR-FRET kinase assay; avg; read-out: Mps1 avg (IC50 [mol/l]). An outline of the steps: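 GST-tagged full-length recombinant human Mps-1 (~0.5 nM) pre-incubated 15 min with compound, then reacted 60 min at 22 °C with 10 μM ATP and 1 μM biotinylated peptide in Hepes pH 7.7 buffer. EDTA-stopped; TR-FRET (Eu anti-phospho-Ser/Thr to SA-XLent) 665/620 nm ratio normalised to no-inhibitor and no-enzyme controls.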
In general terms: In TR-FRET formats the signal depends on donor and acceptor labels being close together.

Turning to `Cc1nsc(Nc2ccc(C#N)cn2)c1C(=O)Nc1ccc(OC[C@H]2CCN(CC(F)(F)F)C2)nc1` [Example 405, 5-[(5-Cyanopyridin-2-yl)amino]-3-methyl-N-(6-{[(35)-1-(2,2,2-trifluoroethyl)pyrrolidin-3-yl]methoxy}pyridin-3-yl)-1,2-thiazole-4-carboxamide], the IC50 is over 20 µM.

On to `Cc1nsc(Nc2cncc(C(F)(F)F)n2)c1C(=O)Nc1ccc(OCCN(C)C(=O)OC(C)(C)C)nc1` [Example 430, tert-Butyl methyl{2-[(5-{[(3-methyl-5-{[6-(trifluoromethyl)pyrazin-2-yl]amino}-1,2-thiazol-4-yl)carbonyl]amino}pyridin-2-yl)oxy]ethyl}carbannate], for which the IC50 was over 20 µM. Then `Cc1nsc(Nc2cnc(C(F)(F)F)cn2)c1C(=O)Nc1ccc(OCCCNC(=O)C(F)(F)F)nc1` [Example 428, 3-Methyl-N-(6-{3-[(trifluoroacetyl)amino]propoxy}pyridin-3-yl)-5-{[5-(trifluoro-methyl)pyrazin-2-yl]amino}-1,2-thiazole-4-carboxamide], with over 20 µM. Then `Cc1nsc(Nc2cnc(C(F)(F)F)cn2)c1C(=O)Nc1ccc(OC2CCN(C(=O)OC(C)(C)C)CC2)nc1` [Example 5, tert-Butyl 4-[(5-{[(3-methyl-5-{[5-(trifluoromethyl)pyrazin-2-yl]amino}-1,2-thiazol-4-yl)carbonyl]amino}pyridin-2-yl)oxy]piperidine-1-carboxylate], with at least 20 µM; and `Cc1nsc(Nc2ccc(C#N)cn2)c1C(=O)Nc1ccc(OC2CCCN(CC(F)(F)F)C2)nc1` (stereo not shown) [Example 40, 5-[(5-Cyanopyridin-2-yl)amino]-3-methyl-N-(6-{[1-(2,2,2-trifluoroethyl)piperidin-3-yl]oxy}pyridin-3-yl)-1,2-thiazole-4-carboxamide], with at least 20 µM; and `Cc1nsc(Nc2cnc3ccccc3n2)c1C(=O)Nc1cccc(C(=O)N2CCN(C(=O)OC(C)(C)C)CC2)c1` [Example 55, tert-Butyl 4-[3-({[3-methyl-5-(quinoxalin-2-ylamino)-1,2-thiazol-4-yl]carbonyl}amino)-benzoyl]piperazine-1-carboxylate], with at least 20 µM. As for `Cc1nsc(Nc2cnc(C(F)(F)F)cn2)c1C(=O)Nc1ccc(OCCNC(=O)C(F)(F)F)nc1` [Example 425, 3-Methyl-N-(6-{2-[(trifluoroacetyl)amino]ethoxy}pyridin-3-yl)-5-{[5-(trifluoro-methyl)pyrazin-2-yl]amino}-1,2-thiazole-4-carboxamide], the IC50 is at least 20 µM. The result for `Cc1nsc(Nc2nc3c(C(F)(F)F)cccc3s2)c1C(=O)Nc1ccc(OCCO)c(F)c1` [Example 4, N-[3-Fluoro-4-(2-hydroxyethoxy)phenyl]-3-methyl-5-{[4-(trifluoromethyl)-1,3-benzothiazol-2-yl]amino}-1,2-thiazole-4-carboxamide] reads at least 20 µM; that for `Cc1nsc(Nc2cc(C#N)ccn2)c1C(=O)Nc1ccc(OCCCNC(=O)OC(C)(C)C)nc1` [Example 43, tert-Butyl [3-({5-[({5-[(4-cyanopyridin-2-yl)amino]-3-methyl-1,2-thiazol-4-yl}-carbonyl)amino]pyridin-2-yl}oxy)propyl]carbamate], at least 20 µM.

With `Cc1nsc(Nc2cnc3ccccc3n2)c1C(=O)Nc1cccc(NC(=O)C(F)(F)F)c1` [Example 432, 3-Methyl-5-(quinoxalin-2-ylamino)-N-{3-[(trifluoroacetyl)amino]phenyl}-1,2-thiazole-4-carboxamide], the IC50 was over 20 µM. Then `Cc1nsc(Nc2cnccn2)c1C(=O)Nc1ccc(OCCCNC(=O)OC(C)(C)C)nc1` [Example 47, tert-Butyl (3-{[5-({[3-methyl-5-(pyrazin-2-ylamino)-1,2-thiazol-4-yl]carbonyl}-amino)pyridin-2-yl]oxy}propyl)carbamate], with at least 20 µM; and `Cc1nsc(Nc2cnc3ccccc3n2)c1C(=O)Nc1cccc(C(=O)N2CCOCC2)c1` [Example 52, 3-Methyl-N-[3-(morpholin-4-ylcarbonyl)phenyl]-5-(quinoxalin-2-ylamino)-1,2-thiazole-4-carboxamide], with 18 µM; and `Cc1nsc(Nc2cnc(C(F)(F)F)cn2)c1C(=O)Nc1ccc(OC2CCNCC2)c(F)c1` [Example 431, N-[3-Fluoro-4-(piperidin-4-yloxy)phenyl]-3-methyl-5-{[5-(trifluoromethyl)pyrazin-2-yl]amino}-1,2-thiazole-4-carboxamide], with over 20 µM.

Regarding `CCN1CC[C@H](Oc2ccc(NC(=O)c3c(C)nsc3Nc3cnc(C(F)(F)F)cn3)cn2)[C@H](F)C1` [Example 424, N-(6-{[(3R,4S)-1-Ethyl-3-fluoropiperidin-4-yl]oxy}pyridin-3-yl)-3-methyl-5-{[5-(trifluoromethyl)pyrazin-2-yl]amino}-1,2-thiazole-4-carboxamide], the IC50 is over 20 µM. On to `Cc1nsc(Nc2cnc(C(F)(F)F)cn2)c1C(=O)Nc1ccc(OCCN2CCC(F)(F)CC2)nc1` [Example 407, N-{6-[2-(4,4-Difluoropiperidin-1-yl)ethoxy]pyridin-3-yl}-3-methyl-5-{[5-(trifluoromethyl)pyrazin-2-yl]amino}-1,2-thiazole-4-carboxamide], for which the IC50 was over 20 µM. Then `Cc1nsc(Nc2cc(C#N)ccn2)c1C(=O)Nc1ccc(OCCCNCC(F)F)nc1` [Example 45, 5-[(4-Cyanopyridin-2-yl)amino]-N-(6-{3-[(2,2-difluoroethyl)amino]propoxy}pyridin-3-yl)-3-methyl-1,2-thiazole-4-carboxamide], with at least 20 µM; and `COCCOc1ccc(NC(=O)c2c(C)nsc2Nc2nc3c(C(F)(F)F)cccc3s2)cc1F` [Example 1, N-[3-Fluoro-4-(2-methoxyethoxy)phenyl]-3-methyl-5-{[4-(trifluoromethyl)-1,3-benzothiazol-2-yl]amino}-1,2-thiazole-4-carboxamide], with at least 20 µM; and `Cc1nsc(Nc2cnc(C(F)(F)F)cn2)c1C(=O)Nc1ccc(OCCN(C)C(=O)OC(C)(C)C)nc1` [Example 429, tert-Butyl methyl{2-[(5-{[(3-methyl-5-{[5-(trifluoromethyl)pyrazin-2-yl]amino}-1,2-thiazol-4-yl)carbonyl]amino}pyridin-2-yl)oxy]ethyl}carbannate], with over 20 µM. Then `Cc1nsc(Nc2cnc(C(F)(F)F)cn2)c1C(=O)Nc1ccc(OC[C@H]2CCN(CC(F)(F)F)C2)nc1` [Example 404, 3-Methyl-N-(6-{[(3S)-1-(2,2,2-trifluoroethyl)pyrrolidin-3-yl]methoxy}pyridin-3-yl)-5-{[5-(trifluoromethyl)pyrazin-2-yl]amino}-1,2-thiazole-4-carboxamide], with over 20 µM; and `Cc1nsc(Nc2cc(C#N)ccn2)c1C(=O)Nc1ccc(OCCCN)nc1` [Example 44, N-[6-(3-Aminopropoxy)pyridin-3-yl]-5-[(4-cyanopyridin-2-yl)amino]-3-methyl-1,2-thiazole-4-carboxamide], with at least 20 µM. As for `Cc1nsc(Nc2cnccn2)c1C(=O)Nc1ccc(OC2CCCN(C(=O)OC(C)(C)C)C2)nc1` (stereo not shown) [Example 41, tert-Butyl 3-{[5-({[3-methyl-5-(pyrazin-2-ylamino)-1,2-thiazol-4-yl]carbonyl}amino)-pyridin-2-yl]oxy}piperidine-1-carboxylate], the IC50 was at least 20 µM. `Cc1nsc(Nc2ccc(C#N)cn2)c1C(=O)Nc1ccc(OC2CCCN(CCF)C2)nc1` (stereo not shown) [Example 38, 5-[(5-Cyanopyridin-2-yl)amino]-N-(6-{[1-(2-fluoroethyl)piperidin-3-yl]oxy}pyridin-3-yl)-3-methyl-1,2-thiazole-4-carboxamide]: the IC50 was at least 20 µM.

For `Cc1nsc(Nc2ccc(C#N)cn2)c1C(=O)Nc1ccc(OCCCNC(=O)OC(C)(C)C)nc1` [Example 46, tert-Butyl [3-({5-[({5-[(5-cyanopyridin-2-yl)amino]-3-methyl-1,2-thiazol-4-yl}-carbonyl)amino]pyridin-2-yl}oxy)propyl]carbamate], the IC50 is at least 20 µM.

Regarding `Cc1nsc(Nc2cnccn2)c1C(=O)Nc1ccc(OCCCN)nc1` [Example 48, N-[6-(3-Aminopropoxy)pyridin-3-yl]-3-methyl-5-(pyrazin-2-ylamino)-1,2-thiazole-4-carboxamide], the IC50 was at least 20 µM. `Cc1nsc(Nc2ccc(C#N)cn2)c1C(=O)Nc1ccc(OC2CCCNC2)nc1` (stereo not shown) [Example 37, 5-[(5-Cyanopyridin-2-yl)amino]-3-methyl-N-[6-(piperidin-3-yloxy)pyridin-3-yl]-1,2-thiazole-4-carboxamide]: the IC50 was at least 20 µM.
